Literature values, collected in patent US20250195458A1, “SHORT-CHAIN FATTY ACIDS FOR CANCER TREATMENT” (priority 2022, published 2025).

Tests used:
colorectal cancer cells = conditions: literature summary of Example 2
[1] = test system: pancreatic carcinoma cell lines (Capan-2, AsPC-1, and MiaPaCa-2); conditions: Capan-2, AsPC-1, MiaPaCa-2; literature summary of Example 2
human lung cancer cells = conditions: literature summary of Example 2
pancreatic cancer = conditions: literature summary of Example 2

For `CC(=O)O` [Acetate], the “Anti-tumor effect in colorectal cancer (apoptosis)” value (colorectal cancer cells) is listed as “triggers apoptosis in colorectal cancer cells”.
For `CC(=O)O[C@]1(C(C)=O)CC[C@H]2[C@@H]3C[C@H](C)C4=CC(=O)CC[C@]4(C)[C@H]3CC[C@@]21C` [Medroxyprogesterone acetate], the “Proliferation of pancreatic carcinoma cell lines” value [1] is given as “blocks the proliferation”.
For `CCC(=O)O` [Propionate], the “Anti-tumor effect in colorectal cancer (apoptosis)” value (colorectal cancer cells) is given as “induces apoptosis in colon cancer” and the “Apoptosis and cell cycle arrest, lung cancer” value (human lung cancer cells) is given as “triggering cell apoptosis and cell cycle arrest”.
For `CCCC(=O)[O-].[Na+]` [Sodium butyrate], the “Invasion of pancreatic cancer” value (pancreatic cancer) is listed as “hinders the invasion of pancreatic cancer” and the “Expression levels of P-gp and STAT3 in human lung cancer cells” value (human lung cancer cells) is listed as “increases the expression levels of P-gp and STATS3”.
